From patent publication US11021521B2, “Pore-modified gram-negative bacteria and uses thereof” (priority 2015, dated 2021)
Values after ≈ are worked out from the molar mass of the structure shown. Values joined by “and” are separate entries in the source; they are usually repeats but may differ in a detail not shown here. Equal entries are not always repeated. Where two headings read alike, the source gives them in different places. Bridge positions count the residues as written; N and C are the ends. Square brackets hold non-standard residues; d marks the D form. Peptide text beside a SMILES is read from it. * marks the point of attachment. Ileψ(thiazoline)Cys = CC[C@H](C)[C@H](N)C1=N[C@H](C(=O)*)CS1; dOrn = NCCC[C@@H](N)C(=O)O

Experiments:
[1] = test system: B. thailandensis Bt-RHA-BtPore (hyperporinated); assay: microbe, parasite or virus in culture; type: cell-based
[2] = test system: B. thailandensis Bt-RHA (wild type, empty cassette); assay: microbe, parasite or virus in culture; type: cell-based
[3] = test system: P. aeruginosa cells (PAO1-LAC and derivatives); assay: Fluorescent probe uptake assay, P. aeruginosa strains
[4] = test system: A. baumannii Ab-ARA-EcPore (hyperporinated); assay: microbe, parasite or virus in culture; type: cell-based; settings: for MIC: Ab-ARA-EcPore, at least three independent measurements; for Fold decrease of MIC (potentiation) by hyperporination: Abau: Ab-ARA-EcPore vs parent
[5] = test system: A. baumannii AbΔ3-ARA (efflux-deficient); assay: microbe, parasite or virus in culture; type: cell-based; settings: for MIC: AbΔ3-ARA, at least three independent measurements
[6] = test system: B. cepacia Bc-RHA-BtPore (hyperporinated); assay: microbe, parasite or virus in culture; type: cell-based; settings: for Fold decrease of MIC (potentiation) by hyperporination: Bc: Bc-RHA-BtPore vs parent; for MIC: Bc-RHA-BtPore
[7] = test system: A. baumannii Ab-ARA (wild type, empty cassette); assay: microbe, parasite or virus in culture; type: cell-based; settings: at least three independent measurements
[8] = test system: B. thailandensis BtΔ2-RHA (efflux-deficient); assay: microbe, parasite or virus in culture; type: cell-based
[9] = test system: B. thailandensis cells (Bt-RHA and derivatives)
[10] = test system: P. aeruginosa PaΔ3-LAC-EcPore (efflux-deficient, hyperporinated); assay: microbe, parasite or virus in culture; type: cell-based
[11] = test system: P. aeruginosa PaΔ3-LAC (efflux-deficient); assay: microbe, parasite or virus in culture; type: cell-based; settings: at least three independent measurements
[12] = test system: A. baumannii AbΔ3-ARA-EcPore (efflux-deficient, hyperporinated); assay: microbe, parasite or virus in culture; type: cell-based; settings: for MIC: AbΔ3-ARA-EcPore; for Fold change of MIC by efflux inactivation plus hyperporination: AbΔ3-ARA-EcPore vs Ab-ARA
[13] = test system: P. aeruginosa PAO1-LAC (wild type, empty cassette); assay: microbe, parasite or virus in culture; type: cell-based; settings: at least three independent measurements
[14] = test system: P. aeruginosa PAO1-LAC-EcPore (hyperporinated); assay: microbe, parasite or virus in culture; type: cell-based; settings: for MIC: PAO1-LAC-EcPore, at least three independent measurements; for Fold decrease of MIC (potentiation) by hyperporination: Pae: PAO1-LAC-EcPore vs parent
[15] = test system: A. baumannii cells (Ab-ARA and derivatives); assay: Fluorescent probe uptake assay, A. baumannii strains; settings: AbΔ3-ARA vs Ab-ARA, fluorescence
[16] = test system: B. cepacia Bc-RHA (wild type, empty cassette); assay: microbe, parasite or virus in culture; type: cell-based
[17] = test system: B. thailandensis BtΔ2-RHA-BtPore (efflux-deficient, hyperporinated); assay: microbe, parasite or virus in culture; type: cell-based
[18] = PaΔ3-LAC-EcPore, at least three independent measurements
[19] = at least three independent measurements
[20] = Burkholderia cepacia, read-out: MIC
[21] = Acinetobacter baumannii, read-out: MIC
[22] = Pseudomonas aeruginosa, PaΔ3-LAC-EcPore, at least three independent measurements, read-out: MIC
[23] = Pseudomonas aeruginosa, read-out: MIC
[24] = Acinetobacter baumannii, at least three independent measurements, read-out: MIC

CCOc1ccc(-c2nc3ccc(-c4nc5ccc(N6CCN(C)CC6)cc5[nH]4)cc3[nH]2)cc1 [HT, Hoechst 33342]
MIC [1]: >64 µM
MIC [2]: >64 µM
Change of intracellular accumulation of probe by inactivation of efflux ([3]; PΔ3-LAC vs PAO1-LAC, fluorescence): lower than those in the parent PAO1-LAC
MIC [4]: 3.125 µg/mL (≈ 6.91 µM)
Fold decrease of MIC (potentiation) by hyperporination [4]: 4 to 8 fold and 8 fold
Fold reduction of MIC by inactivation of efflux ([5]; Abau: AbΔ3-ARA vs Ab-ARA): 32 fold
MIC [5]: 0.78 µg/mL (≈ 1.72 µM)
Fold decrease of MIC (potentiation) by hyperporination [6]: > 4 fold
MIC [7]: 25 µg/mL (≈ 55.2 µM)
MIC [8]: 1 µM
Change of intracellular accumulation of probe by inactivation of efflux [9]: up to 2 fold
MIC [10, 18]: 2 µg/mL
MIC ([10]; PΔ3-LAC-EcPore): 2.0 µM
MIC [11]: 16 µg/mL (≈ 35.4 µM)
MIC [12]: 0.025 to 0.05 µM
Fold change of MIC by efflux inactivation plus hyperporination [12]: 1000 fold
MIC [12, 19]: 0.025 µg/mL
MIC [13]: >64 µg/mL
MIC [14]: 64 µg/mL (≈ 141 µM)
Fold decrease of MIC (potentiation) by hyperporination [14]: 4 to 8 fold
Change of intracellular accumulation of probe by inactivation of efflux [15]: up to 2 fold

c1ccc(Nc2cccc3ccccc23)cc1 [NPN, N-phenyl-1-naphthylamine]
Probe levels in efflux-deficient hyperporinated cells vs parent ([3]; PΔ3-LAC-EcPore vs PAO1-LAC): only slightly higher than in PAO1-LAC cells
Change of intracellular accumulation of probe by inactivation of efflux [9]: higher levels of NPN accumulation than in hyperporinated cells
Change of intracellular accumulation of probe by inactivation of efflux [15]: higher levels of NPN accumulation than in hyperporinated cells

CO[C@@H]1[C@@H](OC(N)=O)[C@@H](O)[C@H](Oc2ccc3c(O)c(NC(=O)c4ccc(O)c(CC=C(C)C)c4)c(=O)oc3c2C)OC1(C)C [Novobiocin]
MIC [16, 20]: 8 µg/mL (≈ 13.1 µM)
Fold decrease of MIC (potentiation) by hyperporination [1]: 2 fold
MIC ([1]; Burkholderia thailandensis): 4 µg/mL
MIC ([2]; Burkholderia thailandensis): 8 µg/mL
Fold decrease of MIC (potentiation) by hyperporination [4]: 2 fold
MIC [4, 21]: 1.56 µg/mL (≈ 2.55 µM)
MIC [5, 21]: 0.025 µg/mL (≈ 0.0408 µM)
Fold decrease of MIC (potentiation) by hyperporination [6]: 16-32 fold
MIC [6, 20]: 0.125 µg/mL (≈ 0.204 µM)
MIC [7, 21]: 3.1 µg/mL (≈ 5.06 µM)
MIC ([8]; Burkholderia thailandensis): 0.25 µg/mL
MIC [10, 22]: 4 µg/mL
MIC [11, 23]: 32 µg/mL (≈ 52.2 µM)
MIC [12, 24]: 0.025 µg/mL
MIC [13]: 512 µg/mL (≈ 836 µM)
Fold decrease of MIC (potentiation) by hyperporination [14]: 16-32 fold
MIC [14, 23]: 64 µg/mL (≈ 104 µM)
MIC ([17]; Burkholderia thailandensis): 0.008 µg/mL (≈ 0.0131 µM)

Cc1c(N)nc([C@H](CC(N)=O)NC[C@H](N)C(N)=O)nc1C(=O)N[C@H](C(=O)N[C@H](C)[C@@H](O)[C@H](C)C(=O)N[C@H](C(=O)NCCC1=N[C@@H](c2nc(C(=O)NCCCCN=C(N)N)cs2)CS1)[C@@H](C)O)[C@@H](O[C@@H]1O[C@@H](CO)[C@@H](O)[C@H](O)[C@@H]1O[C@H]1O[C@H](CO)[C@@H](O)[C@H](OC(N)=O)[C@@H]1O)c1cnc[nH]1 [Zeocin]
MIC [16]: >1024 µg/mL
MIC [1]: 128 µg/mL
MIC [2]: 512 µg/mL
MIC [4]: 0.5 µg/mL (≈ 0.35 µM)
MIC [5]: 1 µg/mL (≈ 0.701 µM)
MIC [6]: 128 µg/mL (≈ 89.7 µM)
MIC [7]: 8 µg/mL (≈ 5.6 µM)
MIC [8]: 2 µg/mL
Fold change of MIC by efflux inactivation plus hyperporination ([10]; PaeΔ3-LAC-Pore vs parent): 256 fold
MIC [10, 18]: 2 µg/mL
MIC [11]: 16 µg/mL (≈ 11.2 µM)
Fold change of MIC by efflux inactivation plus hyperporination [12]: 64 fold
MIC [12, 19]: 0.125 µg/mL
MIC [13]: 512 µg/mL (≈ 359 µM)
MIC [14]: 32 to 64 µg/mL
Fold change of MIC by efflux inactivation plus hyperporination [17]: 4096 fold
MIC [17]: 0.12 µg/mL (≈ 0.0841 µM)

Polymyxin B
MIC [16]: >1024 µg/mL
MIC [1]: >1024 µg/mL
MIC [2]: >1024 µg/mL
MIC [4]: 0.25 µg/mL
MIC [5]: 0.125 µg/mL
MIC [6]: 512 µg/mL
MIC [7]: 0.25 µg/mL
MIC [8]: >1024 µg/mL
MIC [10, 18]: 1.5 µg/mL
MIC [11]: 1.5 µg/mL
MIC [12, 19]: 0.125 µg/mL
MIC [13]: 1.5 µg/mL
MIC [14]: 1.5 µg/mL
MIC [17]: 128 µg/mL

CC[C@H](C)[C@H](N)C1=N[C@H](C(=O)N[C@@H](CC(C)C)C(=O)N[C@H](CCC(=O)O)C(=O)N[C@H](C(=O)N[C@H]2CCCCNC(=O)[C@H](CC(N)=O)NC(=O)[C@@H](CC(=O)O)NC(=O)[C@H](Cc3cnc[nH]3)NC(=O)[C@@H](Cc3ccccc3)NC(=O)[C@H]([C@@H](C)CC)NC(=O)[C@@H](CCCN)NC2=O)[C@@H](C)CC)CS1 [Bacitracin] ({Ileψ(thiazoline)Cys}-L[dE]IK[dOrn]I[dF]H[dD]N; lactam 4-C)
MIC [16, 20]: > 1020 µg/mL
MIC ([1]; Burkholderia thailandensis): 1020 µg/mL
MIC ([2]; Burkholderia thailandensis): > 1020 µg/mL
MIC [4, 21]: 32 µg/mL (≈ 22.5 µM)
MIC [5, 21]: 512 µg/mL (≈ 360 µM)
MIC [6, 20]: 16 µg/mL (≈ 11.2 µM)
MIC [7, 21]: 256 µg/mL (≈ 180 µM)
MIC ([8]; Burkholderia thailandensis): 1020 µg/mL
MIC [10, 22]: 64 µg/mL
MIC [11, 23]: > 1020 µg/mL
MIC [12, 24]: 64 µg/mL
MIC [13, 23]: > 1020 µg/mL
MIC [14, 23]: 64 µg/mL (≈ 45 µM)
MIC ([17]; Burkholderia thailandensis): 8 µg/mL (≈ 5.62 µM)

C[C@@H](O)[C@H]1C(=O)N2C(C(=O)O)=C(S[C@@H]3CN[C@H](C(=O)N(C)C)C3)[C@H](C)[C@H]12 [Meropenem]
MIC [16, 20]: > 4 µg/mL
MIC ([1]; Burkholderia thailandensis): 1 µg/mL
MIC ([2]; Burkholderia thailandensis): 1 µg/mL
Fold decrease of MIC (potentiation) by hyperporination [4]: 2-4 fold
MIC [4, 21]: 0.063 µg/mL (≈ 0.164 µM)
MIC [5, 21]: 0.125 µg/mL (≈ 0.326 µM)
Fold decrease of MIC (potentiation) by hyperporination [6]: > 32 fold
MIC [6, 20]: 0.125 µg/mL (≈ 0.326 µM)
MIC [7, 21]: 0.25 µg/mL (≈ 0.652 µM)
MIC ([8]; Burkholderia thailandensis): 0.25 µg/mL
MIC [10, 22]: 0.03 µg/mL
MIC [11, 23]: 0.125 µg/mL (≈ 0.326 µM)
MIC [12, 24]: 0.063 µg/mL
MIC [13, 23]: 0.5 µg/mL (≈ 1.3 µM)
Fold decrease of MIC (potentiation) by hyperporination [14]: 2-4 fold
MIC [14, 23]: 0.25 µg/mL (≈ 0.652 µM)
MIC ([17]; Burkholderia thailandensis): 0.03 µg/mL (≈ 0.0782 µM)

CN[C@H](CC(C)C)C(=O)N[C@H]1C(=O)N[C@@H](CC(N)=O)C(=O)N[C@H]2C(=O)N[C@H]3C(=O)N[C@H](C(=O)N[C@H](C(=O)O)c4cc(O)cc(O)c4-c4cc3ccc4O)[C@H](O)c3ccc(c(Cl)c3)Oc3cc2cc(c3O[C@@H]2O[C@H](CO)[C@@H](O)[C@H](O)[C@H]2O[C@H]2C[C@](C)(N)[C@H](O)[C@H](C)O2)Oc2ccc(cc2Cl)[C@H]1O [Vancomycin]
MIC [16, 20]: > 1020 µg/mL
MIC [1]: 256 to 512 µg/mL
MIC ([2]; Burkholderia thailandensis): > 1020 µg/mL
MIC [4, 21]: 128 µg/mL (≈ 88.3 µM)
MIC [5, 21]: 1020 µg/mL (≈ 707 µM)
MIC [6, 20]: 8 µg/mL (≈ 5.52 µM)
MIC [7, 21]: 1020 µg/mL (≈ 707 µM)
MIC ([8]; Burkholderia thailandensis): > 1020 µg/mL
MIC [10, 22]: 64 µg/mL
MIC [11, 23]: 1020 µg/mL (≈ 707 µM)
MIC [12, 24]: 128 µg/mL
MIC [13, 23]: 1020 µg/mL (≈ 707 µM)
MIC [14, 23]: 128 µg/mL (≈ 88.3 µM)
MIC ([17]; Burkholderia thailandensis): 4 to 8 µg/mL (≈ 2.76 to 5.52 µM)
